Patent publication US9309537B2, “Chimeric rat produced using rat embryonic stem cells in the presence of an ES cell differentiation suppressant” (National Cancer Center, priority 2009, dated 2016)

System: rat ES cells
Assay: Culture of established rat ES cells with PAC factor or Y factor alone (colony morphology, alkaline phosphatase)
Type: cell-based
Details: ES cell culture medium on MEF

For `C[C@@H](N)[C@H]1CC[C@H](C(=O)Nc2ccncc2)CC1` [Y, Y-27632], the alkaline phosphatase activity was “did not exhibit alkaline phosphatase activity” and the “undifferentiated state and colony morphology of established rat ES cells” value was “unable to maintain the undifferentiation state”.
